According to the supplement of paper PMC10307832:

Key:
Test in all cases: relative viability (nuclei count vs DMSO), 5 days (fraction); higher = more cells survive
Omipalisib + Linsitinib = compound: COc1ncc(-c2ccc3nccc(-c4ccnnc4)c3c2)cc1NS(=O)(=O)c1ccc(F)cc1F [Omipalisib] + C[C@]1(O)C[C@@H](c2nc(-c3ccc4ccc(-c5ccccc5)nc4c3)c3c(N)nccn32)C1 [Linsitinib] (partner 1 µM)
Method in brief: (§1)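 Five library-drug doses in √10 steps were combined with a fixed anchor-drug dose, or a single drug was given alone, by pin tool to lung cancer cell lines in 1536-well plates the day after seeding. Nuclei were stained and counted after 5 days. Relative viability is the nuclei count in treated wells over that in vehicle wells, taken as the median of duplicate plates.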

Omipalisib + AZD7762 = compound: COc1ncc(-c2ccc3nccc(-c4ccnnc4)c3c2)cc1NS(=O)(=O)c1ccc(F)cc1F [Omipalisib] + NC(=O)Nc1cc(-c2cccc(F)c2)sc1C(=O)N[C@H]1CCCNC1 [AZD7762] (partner 0.2 µM)
Method in brief: as §1

Omipalisib + Lapatinib = compound: COc1ncc(-c2ccc3nccc(-c4ccnnc4)c3c2)cc1NS(=O)(=O)c1ccc(F)cc1F [Omipalisib] + CS(=O)(=O)CCNCc1ccc(-c2ccc3ncnc(Nc4ccc(OCc5cccc(F)c5)c(Cl)c4)c3c2)o1 [Lapatinib] (partner 2 µM)
Method in brief: as §1

Omipalisib + Pictilisib = compound: COc1ncc(-c2ccc3nccc(-c4ccnnc4)c3c2)cc1NS(=O)(=O)c1ccc(F)cc1F [Omipalisib] + CS(=O)(=O)N1CCN(Cc2cc3nc(-c4cccc5[nH]ncc45)nc(N4CCOCC4)c3s2)CC1 [Pictilisib] (partner 1 µM)
Method in brief: as §1

Omipalisib + Olaparib = compound: COc1ncc(-c2ccc3nccc(-c4ccnnc4)c3c2)cc1NS(=O)(=O)c1ccc(F)cc1F [Omipalisib] + O=C(c1cc(Cc2n[nH]c(=O)c3ccccc23)ccc1F)N1CCN(C(=O)C2CC2)CC1 [Olaparib] (partner 8 µM)
Method in brief: as §1

Omipalisib + Tozasertib = compound: COc1ncc(-c2ccc3nccc(-c4ccnnc4)c3c2)cc1NS(=O)(=O)c1ccc(F)cc1F [Omipalisib] + Cc1cc(Nc2cc(N3CCN(C)CC3)nc(Sc3ccc(NC(=O)C4CC4)cc3)n2)n[nH]1 [Tozasertib] (partner 0.1 µM)
Method in brief: as §1

Cell Line	relative viability (Omipalisib + Linsitinib; first compound 0.0003 µM)	relative viability (Omipalisib + Linsitinib; first compound 0.003 µM)	relative viability (Omipalisib + Linsitinib; first compound 0.03 µM)	relative viability (Omipalisib + AZD7762; first compound 0.0003 µM)	relative viability (Omipalisib + AZD7762; first compound 0.003 µM)	relative viability (Omipalisib + AZD7762; first compound 0.03 µM)	relative viability (Omipalisib + Lapatinib; first compound 0.0003 µM)	relative viability (Omipalisib + Lapatinib; first compound 0.003 µM)	relative viability (Omipalisib + Lapatinib; first compound 0.03 µM)	relative viability (Omipalisib + Pictilisib; first compound 0.0003 µM)	relative viability (Omipalisib + Pictilisib; first compound 0.003 µM)	relative viability (Omipalisib + Pictilisib; first compound 0.03 µM)	relative viability (Omipalisib + Olaparib; first compound 0.0003 µM)	relative viability (Omipalisib + Olaparib; first compound 0.003 µM)	relative viability (Omipalisib + Olaparib; first compound 0.03 µM)	relative viability (Omipalisib + Tozasertib; first compound 0.0003 µM)	relative viability (Omipalisib + Tozasertib; first compound 0.003 µM)	relative viability (Omipalisib + Tozasertib; first compound 0.03 µM)
PC-14	0.954	0.931	0.794	0.294	0.327	0.18	0.308	0.228	0.162	0.749	0.619	0.383	0.343	0.404	0.42	0.672	0.674	0.411
NCI-H647	1.11	0.95	0.373	0.403	0.322	0.215	0.932	0.782	0.272	0.462	0.307	0.386	0.582	0.426	0.233	0.33	0.158	0.0783
LCLC-103H	1.17	1.08	0.428	0.747	0.623	0.402	–	–	–	0.615	0.665	0.531	0.781	0.726	0.397	0.406	0.361	0.18
NCI-H2228	0.724	0.282	0.211	–	–	–	0.993	0.697	0.291	0.41	0.265	0.407	0.698	0.441	0.179	0.343	0.171	0.126
NCI-H2085	0.786	0.737	0.275	1.06	0.84	0.385	0.838	0.571	0.382	0.416	0.474	0.436	0.829	0.713	0.303	0.905	0.693	0.361
H3255	0.999	0.888	0.485	1	0.869	0.566	0.219	0.193	0.203	0.432	0.439	0.293	0.559	0.526	0.409	0.554	0.556	0.286
LK-2	0.439	0.412	0.331	0.382	0.148	0.134	0.698	0.502	0.306	0.446	0.306	0.445	0.747	0.29	0.238	0.17	0.166	0.183
NCI-H441	0.569	0.382	0.394	1.02	1.02	0.717	–	–	–	0.428	0.354	0.351	0.55	0.321	0.37	0.683	0.451	0.238
SW 900	–	–	–	0.748	0.381	0.342	–	–	–	–	–	–	0.862	0.544	0.417	0.556	0.562	0.423
PC-3 [JPC-3]	0.962	0.976	0.92	0.73	0.685	0.424	0.457	0.367	0.318	0.816	0.766	0.689	1.05	1.16	0.915	1.01	0.856	0.625
NCI-H2342	–	–	–	0.47	0.434	0.383	–	–	–	–	–	–	0.411	0.376	0.239	0.425	0.442	0.354
NCI-H1437	0.952	0.824	0.404	1.17	1	0.395	0.795	0.55	0.308	0.436	0.308	0.319	0.673	0.603	0.537	0.422	0.348	0.244
HCC-827	0.911	0.922	0.387	0.239	0.213	0.143	0.192	0.158	0.187	0.864	0.974	0.533	0.593	0.6	0.243	0.453	0.365	0.187
HCC-44	0.658	0.457	0.282	1	1.13	1.07	1.09	0.96	0.432	0.579	0.464	0.441	1.01	0.974	0.534	1.03	0.953	0.234
NCI-H2126	0.712	0.644	0.422	1.02	0.795	0.657	0.759	0.46	0.374	0.518	0.463	0.435	0.888	0.725	0.412	0.712	0.612	0.353
NCI-H596	0.817	0.517	0.355	0.966	0.546	0.479	0.972	0.833	0.421	0.43	0.386	0.412	0.639	0.604	0.402	0.824	0.598	0.287
NCI-H460	0.509	0.232	0.0381	0.645	0.621	0.277	0.594	0.845	0.151	0.419	0.254	0.316	0.337	0.373	0.167	0.476	0.393	0.0957
NCI-H1792	0.417	0.441	0.164	0.467	0.347	0.165	0.864	0.88	0.301	0.281	0.278	0.129	0.382	0.0789	0.0824	–	–	–
RERF-LC-KJ	0.883	0.716	0.697	0.867	0.554	0.514	0.773	0.572	0.632	0.488	0.463	0.397	0.883	0.763	0.562	0.463	0.525	0.382

Cell Line	relative viability (Omipalisib + Linsitinib; first compound 0.0003 µM)	relative viability (Omipalisib + Linsitinib; first compound 0.003 µM)	relative viability (Omipalisib + Linsitinib; first compound 0.03 µM)	relative viability (Omipalisib + AZD7762; first compound 0.0003 µM)	relative viability (Omipalisib + AZD7762; first compound 0.003 µM)	relative viability (Omipalisib + AZD7762; first compound 0.03 µM)	relative viability (Omipalisib + Lapatinib; first compound 0.0003 µM)	relative viability (Omipalisib + Lapatinib; first compound 0.003 µM)	relative viability (Omipalisib + Lapatinib; first compound 0.03 µM)	relative viability (Omipalisib + Pictilisib; first compound 0.0003 µM)	relative viability (Omipalisib + Pictilisib; first compound 0.003 µM)	relative viability (Omipalisib + Pictilisib; first compound 0.03 µM)	relative viability (Omipalisib + Olaparib; first compound 0.0003 µM)	relative viability (Omipalisib + Olaparib; first compound 0.003 µM)	relative viability (Omipalisib + Olaparib; first compound 0.03 µM)	relative viability (Omipalisib + Tozasertib; first compound 0.0003 µM)	relative viability (Omipalisib + Tozasertib; first compound 0.003 µM)	relative viability (Omipalisib + Tozasertib; first compound 0.03 µM)
COR-L23	0.813	0.771	0.38	–	–	–	1.01	0.893	0.517	0.723	0.709	0.449	0.34	0.301	0.265	0.209	0.21	0.159
UMC-11	0.953	0.838	0.694	–	–	–	0.836	0.531	0.738	0.702	0.425	0.67	0.332	0.548	0.376	0.217	0.209	0.22
SW 1573	0.777	0.476	0.465	–	–	–	0.905	0.786	0.638	0.495	0.388	0.341	0.319	0.332	0.203	0.171	0.146	0.109
NCI-H1395	1.03	0.905	0.592	0.424	0.398	0.379	0.983	0.783	0.608	0.92	0.516	0.585	0.501	0.421	0.371	0.743	0.764	0.506
BEN	0.669	0.497	0.554	0.533	0.495	0.521	0.566	0.444	0.364	0.513	0.378	0.412	1.01	0.769	0.607	0.43	0.426	0.457
SK-MES-1	1.02	0.785	0.69	–	–	–	0.447	0.308	0.364	0.423	0.318	0.347	0.674	0.52	0.26	0.901	0.875	0.53
NCI-H1755	1	0.942	0.516	0.471	0.382	0.328	1.04	0.924	0.783	0.426	0.353	0.344	0.932	0.715	0.362	0.62	0.497	0.42
NCI-H1793	0.648	0.416	0.288	0.402	0.215	0.263	0.614	0.425	0.214	0.348	0.344	0.293	0.576	0.368	0.196	0.287	0.209	0.113
HCC-15	0.929	0.77	0.799	1.23	0.916	0.91	0.81	0.779	0.795	0.698	0.599	0.702	0.681	0.643	0.542	0.373	0.38	0.237
ChaGo-K-1	–	–	–	0.899	0.811	0.836	–	–	–	0.635	0.652	0.809	0.455	0.38	0.399	0.242	0.202	0.167
LXF-289	0.961	1	0.793	1.11	1.26	0.911	0.894	0.956	0.785	0.772	0.684	0.671	0.943	1.05	0.455	0.21	0.0991	0.0753
NCI-H661	0.389	0.439	0.234	–	–	–	0.366	0.294	0.196	0.567	0.37	0.365	0.744	0.659	0.604	0.366	0.388	0.37
SK-LU-1	1.03	1	0.679	–	–	–	0.89	0.724	0.493	0.685	0.504	0.511	0.455	0.304	0.366	0.339	0.301	0.237
COR-L 105	0.963	0.835	0.717	–	–	–	0.37	0.334	0.313	0.349	0.356	0.299	0.596	0.708	0.569	0.356	0.359	0.316
NCI-H2009	1.13	1.18	0.946	–	–	–	0.997	0.943	0.581	0.752	0.797	0.52	0.705	0.511	0.378	0.796	0.674	0.607
NCI-H1650	–	–	–	–	–	–	0.771	0.771	0.576	0.401	0.556	0.564	0.774	0.807	0.576	0.401	0.375	0.312
NCI-H2023	0.513	0.342	0.234	–	–	–	0.684	0.374	0.179	0.204	0.181	0.179	0.428	0.414	0.185	0.309	0.282	0.151
NCI-H2170	–	–	–	0.684	0.376	0.375	0.221	0.257	0.257	0.3	0.137	0.278	0.534	0.456	0.226	0.607	0.482	0.354
NCI-H520	0.9	0.672	0.275	–	–	–	0.778	0.581	0.22	0.243	0.212	0.251	0.295	0.294	0.139	0.319	0.308	0.235
